The record followed here is BindingDB's records for doi:10.1016/j.bmcl.2003.11.078 (Virginia Commonwealth University, 2004).

The assay is described as follows: Binding affinity at imidazoline receptor I-1 of rat.

`Brc1cccc2c3c([nH]c12)CNCC3` [8-Bromo-2,3,4,9-tetrahydro-1H-beta-carboline] returned a Ki of 3.74 µM.
